Data on eight molecules can be found in PubChem BioAssay (NCI).

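Cells were grown in 96-well plates and exposed to each compound for 48 hours at five concentrations; endpoints were interpolated linearly between bracketing concentrations, or set to the highest concentration if not reached. The concentration for 50% growth inhibition is given as GI50. At the TGI there is no net growth.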

Some test systems named below: 786-0 renal; A498 renal; HCT-116 colon; IGROV1 ovarian; MCF7 breast; MDA-MB-231 breast; NCI-H522 lung; RPMI-8226 leukemia; SK-MEL-28 melanoma; SNB-19 CNS.
Holding throughout (assay): inhibition of tumour cell growth, NCI panel, 48 h

Consider `CCOC(=O)CC1C(CNC(=O)NC)OC(n2cnc3c(NC(=O)Nc4ccccc4)ncnc32)C1O[Si](C)(C)C(C)(C)C` (stereo not given), for which the GI50 in the assay on 786-0 renal was 2 µM; in the assay on A498 renal, 3.35 µM; with HCT-116 colon, 3.2 µM; in the assay on IGROV1 ovarian, 3.85 µM; with MCF7 breast it was 3.42 µM; in the assay on MDA-MB-231 breast it was 3.96 µM. In addition, the GI50 in the assay with NCI-H522 lung is 4.36 µM; in the assay on RPMI-8226 leukemia, 1.09 µM; in the assay on SK-MEL-28 melanoma, 6.85 µM; in the assay with SNB-19 CNS, 29 µM. Besides, the TGI was 5.21 µM in the assay on 786-0 renal; 17.1 µM in the assay on A498 renal; 16.1 µM with HCT-116 colon; 18 µM in the assay on IGROV1 ovarian; 45.1 µM in the assay on MCF7 breast; 41.3 µM in the assay on MDA-MB-231 breast. The TGI was 85.7 µM in the assay with NCI-H522 lung, 4.57 µM in the assay with RPMI-8226 leukemia, 20.2 µM in the assay on SK-MEL-28 melanoma and > 100 µM in the assay with SNB-19 CNS.
As to `CCN(CC)CCOc1ccccc1-n1c(C)ccc1-c1ccccc1`, the GI50 with 786-0 renal is 17.1 µM; in the assay on A498 renal, 14.5 µM; with HCT-116 colon, 12 µM; in the assay on IGROV1 ovarian, 14.8 µM; in the assay with MCF7 breast it was 13 µM; in the assay on MDA-MB-231 breast it was 6.54 µM. Besides, the GI50 was 11.6 µM with NCI-H522 lung, 22.9 µM with RPMI-8226 leukemia, 15.7 µM with SK-MEL-28 melanoma and 15.7 µM in the assay on SNB-19 CNS. Moreover, the TGI in the assay with 786-0 renal worked out at 31.8 µM; in the assay on A498 renal it was 32 µM; in the assay with HCT-116 colon, 25.8 µM; in the assay on IGROV1 ovarian it was 31.8 µM; in the assay with MCF7 breast, 26.7 µM; in the assay with MDA-MB-231 breast it was 20.7 µM. In addition, the TGI was 28.3 µM with NCI-H522 lung, 68.7 µM in the assay on RPMI-8226 leukemia, 29.7 µM in the assay with SK-MEL-28 melanoma and 31.9 µM in the assay with SNB-19 CNS.
Take `CC(=O)OCCC/C(=C/c1cc2ccccc2c2ccccc12)[N+](=O)[O-]`: the GI50 in the assay with 786-0 renal was 1.68 µM; in the assay with A498 renal, 1.38 µM; in the assay on HCT-116 colon, 1.48 µM; in the assay on IGROV1 ovarian, 1.06 µM; in the assay with MCF7 breast, 0.545 µM; in the assay with MDA-MB-231 breast, 1.78 µM. For the same molecule, the GI50 is 0.252 µM in the assay on NCI-H522 lung, 1.27 µM in the assay with RPMI-8226 leukemia, 1.64 µM with SK-MEL-28 melanoma and 1.66 µM with SNB-19 CNS. Besides, the TGI in the assay with 786-0 renal stood at 3.05 µM; with A498 renal it was 2.72 µM; with HCT-116 colon, 2.8 µM; with IGROV1 ovarian, 2.81 µM; in the assay with MCF7 breast, 1.95 µM; in the assay on MDA-MB-231 breast, 4.3 µM. Further, the TGI in the assay on NCI-H522 lung is 0.981 µM; with RPMI-8226 leukemia it was 5.74 µM; in the assay on SK-MEL-28 melanoma it was 2.99 µM; in the assay with SNB-19 CNS it was 3.22 µM.
For the molecule `NC1=C(/C(N)=N/O)C(c2ccccc2)c2ccc3ccccc3c2O1` (stereo not given), the GI50 was 0.513 µM in the assay on 786-0 renal; 0.168 µM in the assay with A498 renal; 0.444 µM in the assay with HCT-116 colon; 0.459 µM with IGROV1 ovarian; 0.261 µM with MCF7 breast; 0.988 µM in the assay on MDA-MB-231 breast. Moreover, the GI50 in the assay with NCI-H522 lung is 0.145 µM; in the assay with RPMI-8226 leukemia it was 0.38 µM; in the assay on SK-MEL-28 melanoma, 11.3 µM; with SNB-19 CNS, 0.471 µM. Besides, the TGI in the assay on 786-0 renal was > 58 µM; in the assay on A498 renal, 0.72 µM; in the assay on HCT-116 colon, 30.7 µM; in the assay with IGROV1 ovarian, > 64.3 µM; in the assay with MCF7 breast, 97.4 µM; in the assay with MDA-MB-231 breast, 24.5 µM. Besides, the TGI in the assay on NCI-H522 lung was 26.7 µM; with RPMI-8226 leukemia, 28.9 µM; with SK-MEL-28 melanoma, 51 µM; with SNB-19 CNS it was > 100 µM.
For the molecule `CN1CCN(c2ccc(NC(=O)c3cncnc3Nc3ccc4c(ccn4Cc4cccc(F)c4)c3)cc2)CC1`, the GI50 in the assay on 786-0 renal was 0.66 µM; in the assay with A498 renal, 2.16 µM; in the assay on HCT-116 colon it was 1 µM; in the assay on IGROV1 ovarian, 2.29 µM; with MCF7 breast, 1.15 µM; in the assay with MDA-MB-231 breast, 1.34 µM. In addition, the GI50 with NCI-H522 lung is 1.63 µM; in the assay with RPMI-8226 leukemia, 0.754 µM; with SK-MEL-28 melanoma, 0.533 µM; in the assay on SNB-19 CNS, 4.42 µM. Moreover, the TGI was found to be 1.37 µM in the assay on 786-0 renal; 6.76 µM in the assay on A498 renal; 3.55 µM in the assay on HCT-116 colon; 6.92 µM in the assay with IGROV1 ovarian; 5.02 µM in the assay on MCF7 breast; 5.03 µM in the assay on MDA-MB-231 breast. The TGI is 6.59 µM with NCI-H522 lung, 1.79 µM in the assay with RPMI-8226 leukemia, 1.01 µM in the assay with SK-MEL-28 melanoma and 8.96 µM with SNB-19 CNS.
Consider `COc1cc(-c2cn(-c3ccc(F)cc3)c(=O)[nH]2)cc(OC)c1OC`, for which the GI50 in the assay on 786-0 renal, in the assay on A498 renal, with HCT-116 colon, in the assay on IGROV1 ovarian, in the assay on MCF7 breast and with MDA-MB-231 breast was > 100 µM in each case. The GI50 in the assay on NCI-H522 lung, in the assay with RPMI-8226 leukemia, in the assay on SK-MEL-28 melanoma and with SNB-19 CNS was > 100 µM each time. For the same molecule, the TGI in the assay on 786-0 renal, with A498 renal, in the assay with HCT-116 colon, in the assay on IGROV1 ovarian, in the assay on MCF7 breast and in the assay on MDA-MB-231 breast was > 100 µM in each case. In addition, the TGI in the assay with NCI-H522 lung, with RPMI-8226 leukemia, in the assay on SK-MEL-28 melanoma and in the assay on SNB-19 CNS was > 100 µM throughout.
Regarding `COc1ccccc1C(=O)Nc1ccc(Cl)c(C(=O)OC(C)C)c1`, the TGI with 786-0 renal was > 100 µM; in the assay on A498 renal, > 90.4 µM; in the assay with HCT-116 colon, > 95 µM; in the assay on IGROV1 ovarian it was > 100 µM; with MCF7 breast, > 100 µM; in the assay on MDA-MB-231 breast it was > 100 µM. The TGI in the assay on NCI-H522 lung was > 81.4 µM; in the assay with RPMI-8226 leukemia, 77.6 µM; in the assay on SK-MEL-28 melanoma it was > 94.5 µM; in the assay on SNB-19 CNS, > 100 µM.
Consider `Cn1c(=O)c2[nH]c(CCS)nc2n(C)c1=O`, for which the TGI in the assay on 786-0 renal, in the assay on A498 renal, in the assay with HCT-116 colon, in the assay on IGROV1 ovarian, in the assay on MCF7 breast and in the assay with MDA-MB-231 breast was > 100 µM in each case. Moreover, the TGI in the assay with NCI-H522 lung, in the assay with RPMI-8226 leukemia, in the assay with SK-MEL-28 melanoma and in the assay with SNB-19 CNS was > 100 µM in each case.
